Assay results taken from patent US8455475B2 (Gruenenthal GmbH, priority 2009, dated 2013).

Assays:
[1] = biological target: T1, human B1R (bradykinin receptor 1) (Homo sapiens, UniProt P46663); assay: FLIPR Ca2+ assay (Fluo-4) on CHO K1 cells stably transfected with the human B1R gene (hB1R cells): % inhibition at 10 μM / IC50, agonist Lys-Des-Arg9-bradykinin; type: cell-based; conditions: CHO-K1, human B1R
T1 construct: expressed in transfected cells; host or cells: CHO K1 cells
T1 sequence (P46663 1-353): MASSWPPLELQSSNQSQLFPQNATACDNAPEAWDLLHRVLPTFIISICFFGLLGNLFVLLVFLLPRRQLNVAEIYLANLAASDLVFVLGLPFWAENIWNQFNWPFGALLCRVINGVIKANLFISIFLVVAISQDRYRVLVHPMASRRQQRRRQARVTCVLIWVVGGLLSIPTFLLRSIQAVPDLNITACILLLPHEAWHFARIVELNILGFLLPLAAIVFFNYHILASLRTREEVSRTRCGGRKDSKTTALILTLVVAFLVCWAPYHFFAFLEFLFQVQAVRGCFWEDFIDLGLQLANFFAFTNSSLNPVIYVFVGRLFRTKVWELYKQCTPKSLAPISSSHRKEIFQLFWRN
Method in brief: (§1)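 Peak fluorescence counts read on FLIPR (λex 488, λem 540 nm) after two additions: compound first, then agonist at EC80 after 10–20 min. Human line challenged with Lys-Des-Arg9-bradykinin, rat line with Des-Arg9-bradykinin. Suppression of Ca2+ inflow expressed as % of maximum inhibition.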

[2] = biological target: T2, rat B1R (bradykinin receptor 1) (Rattus norvegicus, UniProt P97583); assay: FLIPR Ca2+ assay (Fluo-4) on CHO K1 cells stably transfected with the B1R gene of the rat (rB1R cells): % inhibition at 10 μM / IC50, agonist Des-Arg9-bradykinin; type: cell-based; conditions: CHO-K1, rat B1R
T2 construct: expressed in transfected cells; host or cells: CHO K1 cells
T2 sequence (P97583 1-337): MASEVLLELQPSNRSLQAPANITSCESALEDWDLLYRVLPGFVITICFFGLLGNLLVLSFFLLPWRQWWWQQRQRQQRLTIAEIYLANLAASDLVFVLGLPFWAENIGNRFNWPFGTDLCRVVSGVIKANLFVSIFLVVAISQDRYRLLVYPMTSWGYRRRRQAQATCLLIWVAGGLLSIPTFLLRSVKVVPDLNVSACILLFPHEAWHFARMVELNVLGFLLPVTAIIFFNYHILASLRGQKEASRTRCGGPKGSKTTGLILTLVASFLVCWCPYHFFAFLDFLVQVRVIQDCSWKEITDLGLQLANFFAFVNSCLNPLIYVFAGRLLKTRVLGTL
Method in brief: as §1

Row | Compound | inhibition at 10 µM [1] | inhibition at 10 µM [2]
1 | CC1(C)Cc2ccc(C(=O)N3CCC4(CC3)CCN(c3ccncc3)CC4)cc2C1NC(=O)c1cc(Cl)ccc1Cl (centres unmarked) [IND_CC-210, 2,5-Dichloro-N-[2,2-dimethyl-6-(9-pyridin-4-yl-3,9-diazaspiro[5.5]undecane-3-carbonyl)-1,3-dihydro-inden-1-yl]-benzamide] | 97% | 104%
2 | COc1ccc(C(=O)NC2CCc3ccc(C(=O)N4CCC5(CC4)CCN(c4ccncc4)C5)cc32)c(Cl)c1 (centres unmarked) [IND_CC-212, 2-Chloro-4-methoxy-N-[6-(2-pyridin-4-yl-2,8-diazaspiro[4.5]decane-8-carbonyl)-2,3-dihydro-1H-inden-1-yl]-benzamide] | 58% | 102%
3 | Cc1ccc(F)c(C(=O)NC2CCc3ccc(C(=O)N4CCC5(CC4)CCN(c4ccncc4)CC5)cc32)c1Cl (centres unmarked) [IND_CC-214, 2-Chloro-6-fluoro-3-methyl-N-[6-(9-pyridin-4-yl-3,9-diazaspiro[5.5]undecane-3-carbonyl)-2,3-dihydro-1H-inden-1-yl]-benzamide] | 83% | 102%
4 | Cc1ccc(F)c(C(=O)NC2CCc3ccc(C(=O)N4CCC5(CC4)CCN(c4ccncc4)C5)cc32)c1Cl (centres unmarked) [IND_CC-215, 2-Chloro-6-fluoro-3-methyl-N-[6-(2-pyridin-4-yl-2,8-diazaspiro[4.5]decane-8-carbonyl)-2,3-dihydro-1H-inden-1-yl]-benzamide] | 48% | 103%
5 | Cc1ccc(F)c(C(=O)NC2c3cc(C(=O)N4CCC5(CC4)CCN(c4ccncc4)CC5)ccc3CC2(C)C)c1Cl (centres unmarked) [IND_CC-216, 2-Chloro-N-[2,2-dimethyl-6-(9-pyridin-4-yl-3,9-diazaspiro[5.5]undecane-3-carbonyl)-1,3-dihydro-inden-1-yl]-6-fluoro-3-methyl-benzamide] | 58% | 103%
6 | O=C(NC1CCc2ccc(C(=O)N3CCC4(CC3)CCN(c3ccncc3)CC4)cc21)c1cc(C(F)(F)F)ccc1Cl (centres unmarked) [IND_CC-217, 2-Chloro-N-[6-(9-pyridin-4-yl-3,9-diazaspiro[5.5]undecane-3-carbonyl)-2,3-dihydro-1H-inden-1-yl]-5-(trifluoromethyl)-benzamide] | 99% | 95%
7 | O=C(NC1CCc2ccc(C(=O)N3CCC4(CC3)CCN(c3ccncc3)C4)cc21)c1cc(C(F)(F)F)ccc1Cl (centres unmarked) [IND_CC-218, 2-Chloro-N-[6-(2-pyridin-4-yl-2,8-diazaspiro[4.5]decane-8-carbonyl)-2,3-dihydro-1H-inden-1-yl]-5-(trifluoromethyl)-benzamide] | 94% | 103%
8 | CC1(C)Cc2ccc(C(=O)N3CCC4(CC3)CCN(c3ccncc3)CC4)cc2C1NC(=O)c1cc(C(F)(F)F)ccc1Cl (centres unmarked) [IND_CC-219, 2-Chloro-N-[2,2-dimethyl-6-(9-pyridin-4-yl-3,9-diazaspiro[5.5]undecane-3-carbonyl)-1,3-dihydro-inden-1-yl]-5-(trifluoromethyl)-benzamide] | 53% | 104%
9 | O=C(NC1CCc2ccc(C(=O)N3CCC4(CC3)CCN(c3ccncc3)CC4)cc21)c1cc(F)ccc1Cl (centres unmarked) [IND_CC-220, 2-Chloro-5-fluoro-N-[6-(9-pyridin-4-yl-3,9-diazaspiro[5.5]undecane-3-carbonyl)-2,3-dihydro-1H-inden-1-yl]-benzamide] | 100% | 104%
10 | O=C(NC1CCc2ccc(C(=O)N3CCC4(CC3)CCN(c3ccncc3)C4)cc21)c1cc(F)ccc1Cl (centres unmarked) [IND_CC-221, 2-Chloro-5-fluoro-N-[6-(2-pyridin-4-yl-2,8-diazaspiro[4.5]decane-8-carbonyl)-2,3-dihydro-1H-inden-1-yl]-benzamide] | 100% | 104%
11 | CC1(C)Cc2ccc(C(=O)N3CCC4(CC3)CCN(c3ccncc3)CC4)cc2C1NC(=O)c1cc(F)ccc1Cl (centres unmarked) [IND_CC-223, 2-Chloro-N-[2,2-dimethyl-6-(9-pyridin-4-yl-3,9-diazaspiro[5.5]undecane-3-carbonyl)-1,3-dihydro-inden-1-yl]-5-fluoro-benzamide] | 97% | 105%
12 | CN(C(=O)c1cc(F)c(F)cc1Cl)C1CCc2ccc(C(=O)N3CCC4(CC3)CCN(c3ccncc3)CC4)cc21 (centres unmarked) [IND_CC-224, 2-Chloro-4,5-difluoro-N-methyl-N-[6-(9-pyridin-4-yl-3,9-diazaspiro[5.5]undecane-3-carbonyl)-2,3-dihydro-1H-inden-1-yl]-benzamide] | 100% | 103%
13 | CN(C(=O)c1cccc(C(F)(F)F)c1Cl)C1CCc2ccc(C(=O)N3CCC4(CC3)CCN(c3ccncc3)CC4)cc21 (centres unmarked) [IND_CC-225, 2-Chloro-N-methyl-N-[6-(9-pyridin-4-yl-3,9-diazaspiro[5.5]undecane-3-carbonyl)-2,3-dihydro-1H-inden-1-yl]-3-(trifluoromethyl)-benzamide] | 71% | 103%
14 | CN(C1CCc2ccc(C(=O)N3CCC4(CC3)CCN(c3ccncc3)CC4)cc21)S(=O)(=O)Cc1ccccc1C(F)(F)F (centres unmarked) [IND_CC-226, N-Methyl-N-[6-(9-pyridin-4-yl-3,9-diazaspiro[5.5]undecane-3-carbonyl)-2,3-dihydro-1H-inden-1-yl]-1-[2-(trifluoromethyl)-phenyl]-methanesulfonic acid amide] | 98% | 101%

Next, values leading:

Row | inhibition at 10 µM [1] | inhibition at 10 µM [2] | Compound
15 | 100% | 104% | O=C(NC1CCc2ccc(C(=O)N3CCC4(CC3)CCN(c3ccncc3)CC4)cc21)c1cc(F)c(F)cc1Cl (centres unmarked) [IND_CC-228, 2-Chloro-4,5-difluoro-N-[6-(9-pyridin-4-yl-3,9-diazaspiro[5.5]undecane-3-carbonyl)-2,3-dihydro-1H-inden-1-yl]-benzamide]
16 | 100% | 102% | O=C(NC1CCc2ccc(C(=O)N3CCC4(CC3)CCN(c3ccncc3)C4)cc21)c1cc(F)c(F)cc1Cl (centres unmarked) [IND_CC-229, 2-Chloro-4,5-difluoro-N-[6-(2-pyridin-4-yl-2,8-diazaspiro[4.5]decane-8-carbonyl)-2,3-dihydro-1H-inden-1-yl]-benzamide]
17 | 100% | 102% | CC1(C)Cc2ccc(C(=O)N3CCC4(CC3)CCN(c3ccncc3)CC4)cc2C1NC(=O)c1cc(F)c(F)cc1Cl (centres unmarked) [IND_CC-231, 2-Chloro-N-[2,2-dimethyl-6-(9-pyridin-4-yl-3,9-diazaspiro[5.5]undecane-3-carbonyl)-1,3-dihydro-inden-1-yl]-4,5-difluoro-benzamide]
18 | 96% | 101% | O=C(NC1CCc2ccc(C(=O)N3CCC4(CC3)CCN(c3ccncc3)CC4)cc21)c1cccc(C(F)(F)F)c1Cl (centres unmarked) [IND_CC-232, 2-Chloro-N-[6-(9-pyridin-4-yl-3,9-diazaspiro[5.5]undecane-3-carbonyl)-2,3-dihydro-1H-inden-1-yl]-3-(trifluoromethyl)-benzamide]
19 | 86% | 98% | O=C(NC1CCc2ccc(C(=O)N3CCC4(CC3)CCN(c3ccncc3)C4)cc21)c1cccc(C(F)(F)F)c1Cl (centres unmarked) [IND_CC-233, 2-Chloro-N-[6-(2-pyridin-4-yl-2,8-diazaspiro[4.5]decane-8-carbonyl)-2,3-dihydro-1H-inden-1-yl]-3-(trifluoromethyl)-benzamide]
20 | 98% | 96% | O=C(c1ccc2c(c1)C(NS(=O)(=O)Cc1ccccc1C(F)(F)F)CC2)N1CCC2(CC1)CCN(c1ccncc1)CC2 (centres unmarked) [IND_CC-236, N-[6-(9-Pyridin-4-yl-3,9-diazaspiro[5.5]undecane-3-carbonyl)-2,3-dihydro-1H-inden-1-yl]-1-[2-(trifluoromethyl)-phenyl]-methanesulfonic acid amide]
21 | 100% | 98% | O=C(c1ccc2c(c1)C(NS(=O)(=O)Cc1ccccc1C(F)(F)F)CC2)N1CCC2(CC1)CCN(c1ccncc1)C2 (centres unmarked) [IND_CC-237, N-[6-(2-Pyridin-4-yl-2,8-diazaspiro[4.5]decane-8-carbonyl)-2,3-dihydro-1H-inden-1-yl]-1-[2-(trifluoromethyl)-phenyl]-methanesulfonic acid amide]
22 | 99% | 100% | CC1(C)Cc2ccc(C(=O)N3CCC4(CC3)CCN(c3ccncc3)CC4)cc2C1NS(=O)(=O)Cc1ccccc1C(F)(F)F (centres unmarked) [IND_CC-238, N-[2,2-Dimethyl-6-(9-pyridin-4-yl-3,9-diazaspiro[5.5]undecane-3-carbonyl)-1,3-dihydro-inden-1-yl]-1-[2-(trifluoromethyl)-phenyl]-methanesulfonic acid amide]
